According to patent US11524077B2, “Orally active, cell-penetrating homing peptide and methods using same” (Vascular BioSciences, priority 2012, dated 2022):
Bridge positions count the residues as written; N and C are the ends. Ends that are not written are not given here. Peptide text beside a SMILES is read from it.

Key:
trypsin = trypsin digest time-course experiment with mass spectrometry analysis; type: in vitro ADME; conditions: trypsin in Krebbs buffer, 24° C., 0-120 minutes
Description: In an effort to further understand the oral availability of cyclic CAR peptide, we tested the stability of cyclic CAR (cCAR) and linear CAR in the presence of trypsin, a serine protease that is one of the primary enzymes found in the digestive system of vertebrates. Trypsin selectively cleaves peptide chains at the carboxyl side of the basic residues lysine and arginine, yielding a potentially wide variety of peptide fragments.
We conducted a trypsin proteolysis time course experiment, and tested cCAR and linear CAR (cyclic CAR that lacks the disulfide bond between adjacent cysteine residues and has a linear structure) in the presence of a trypsin solution.
For the digest time course experiment, the cCAR peptide sample was prepared by dissolving cCAR in Krebbs buffer (670 μM CAR), and the trypsin digest solution was prepared by adding trypsin to Krebbs buffer as well (0.1 μg/μL Trypsin). 15 μL CAR (670 μM) was added to 40 μL trypsin solution (0.1 μg/μL) and 75 μL Krebbs buffer. The reaction was allowed to proceed at 24° C. for different time periods of time. The reactions were quenched with 20 μL formic acid (500 μM) at different time points to stop trypsin from degrading any further peptide substrate. These steps were performed repeatedly for multiple time points (t=0, 5, 10, 15, 20, 30, 60, 120 minutes) for both cCAR and linear CAR. The different time point samples were desalted and analyzed using mass spectrometry.

[1] = co-administered with the Rho-kinase inhibitor fasudil; cited from earlier work
[2] = system: SU/Hx/Nx rats with severe occlusive model PAH; assay: sublingual CAR +/- imatinib or sildenafil in rats with severe occlusive model PAH; type: in vivo, rat; conditions: CAR 3 mg/kg sublingual; i.v. bolus imatinib or sildenafil; RVSP and SAP
Protocol: (A) a pulmonary artery with medial thickening, (B) a small pulmonary artery with neointimal occlusion, (C) spleen, (D) liver, and (E) kidney from a SU/Hx/Nx rat. […] Effects of CAR (3 mg/kg, sublingual) on intravenous (bolus) imatinib (F)- and sildenafil (G)- induced reductions in right ventricular systolic pressure (RVSP) and systemic arterial pressure (SAP) in SU/Hx/Nx rats. Values are means±SE. N=4-6. *p<0.05 with (solid line) vs. without (dashed line) CAR.
CAR was administered sublingually at a dosing of 3 mg/kg. The administration was performed in six rats with severe occlusive model PAH via dropper sublingually. The administration was +/− imatinib or +/− sildenafil.

[3] = system: severe occlusive PAH rats (SU5416/Hx/Nx-exposed); assay: hemodynamic effect of oral CAR 3 hours prior to i.v. imatinib in severe occlusive rat model of PAH; type: in vivo
Protocol: Anesthetized severe occlusive PAH rats were then catheterized in the right jugular vein for measurement of right ventricular systolic pressure (RVSP), the right carotid artery and advanced into the aorta for the measurement of systemic pressure (SAP) and the left jugular vein for drug administration.
Values are means±SE. N=3 without CAR and N=5 with CAR *p<0.05 vs. without CAR.
Recently we sought to explore the hemodynamic effect of orally administering 20 mg/kg of CAR 3 hours prior to i.v. administration of imatinib at doses of 5 mg/kg and 20 mg/kg in a severe occlusive rat model of PAH. Rats were first orally syringe fed a mixture of 20 mg/Kg CAR in a 10% sucrose solution 3 hours prior to anesthetization and assessment of the hemodynamic effects of i.v. administration of 5 mg/kg imatinib followed 20 minutes later by i.v. administration of 20 mg/kg of imatinib (FIG. 1).

[4] = system: pulmonary hypertensive arteries; conditions: monocrotaline (MCT) and SU5416/Hypoxia/Normoxia severe occlusive rat models of PAH; cited from earlier work
[5] = imatinib i.v. 20 mg/kg, 3 hours after oral CAR 20 mg/kg, severe occlusive PAH rats

Compound | outcome of trypsin digest (stability in words) (trypsin) | resistance to trypsin digestion relative to cCAR (trypsin) | resistance to trypsin digestion relative to linear CAR (trypsin) | vasodilation when co-administered with fasudil [1] | effect on action of co-administered drugs [2] | adjuvant activity after oral administration ([3]; 3 hours after oral CAR 20 mg/kg in 10% sucrose, i.v. imatinib) | change in systemic arterial pressure (SAP) [3, 5] | reduction in right ventricular systolic pressure (RVSP) [3, 5] [%] | homing to pulmonary hypertensive arteries [4]
C[C@H](NC(=O)[C@@H]1CSSC[C@H](NC(=O)[C@H](CC(=O)O)NC(=O)[C@H](CCCCN)NC(=O)[C@H](CC(N)=O)NC(=O)[C@H](CCCCN)NC(=O)[C@@H](N)CO)C(=O)N1)C(=O)N[C@@H](CCCNC(=N)N)C(=O)O [SEQ ID NO: 5, SKNKDCCAR] (H-SKNKDCCAR-OH; disulfide 6-7; N-terminus and C-terminus assumed) | largely resistant to further degradation by trypsin | approximately 10 fold | approximately 100 fold |  |  |  |  |  | 
C[C@H](NC(=O)[C@@H](N)CS)C(=O)N[C@@H](CCCNC(=N)N)C(=O)N[C@@H](CO)C(=O)N[C@@H](CCCCN)C(=O)N[C@@H](CC(N)=O)C(=O)N[C@@H](CCCCN)C(=O)N[C@@H](CC(=O)O)C(=O)N[C@@H](CS)C(=O)O [linear CAR] (H-CARSKNKDC-OH; N-terminus and C-terminus assumed) | quickly digested by trypsin into its constituent amino acids |  |  |  |  |  |  |  | 
CARSKNKDC (disulfide 1-9 (inferred)) [cell-penetrating homing peptide] | yielded one predominant product that persisted over the time course of the experiment |  |  | acute pulmonary selective vasodilation | can facilitate the selective action of co-administered drugs at the site of the disease | displayed pulmonary selective adjuvant activity | no change | 18 | shown to home to pulmonary hypertensive arteries
